What is called viability is a read-out of living cells in per cent, often relative to untreated cells.

The series is described as follows: in vitro. As to conditions: human, hela cells, % viability.

`Cc1cccc(OCC(C)NC(=O)N2CCCC2c2cnn(C)c2)c1` (stereo not drawn) [CBK304100]: the viability at 28.5 h, 10 µM came to 91.6%.

As to `Cc1cnc(CNC(=O)N2CCN(Cc3ccccc3)CC2)cn1` [CBK155627], the viability at 28.5 h, 10 µM was determined as 99.3%.

Turning to `COC(=O)c1c(COC(=O)c2cnc(Cl)c(Cl)c2)nc2ccccc2c1C` [CBK296940], the viability at 28.5 h, 10 µM came to 102%.

With `COc1cc(NC(=O)NCc2cncn2CC(C)C)c2ncccc2c1` [CBK307182], the viability at 28.5 h, 10 µM is 52.1%.

For `CO[C@@]12CC[C@@H](OCC3CC3)C[C@@H]1N(Cc1c(C)cnn1C)CC2` [CBK307072], the viability at 28.5 h, 10 µM came out at 97%.

Take `COc1ccc(N2C(=O)/C(=C/c3cc(C)n(-c4cccc(C(=O)O)c4C)c3C)C(=O)NC2=S)cc1` [CBK264315]: the viability at 28.5 h, 10 µM (bulk resorufin, single well) stood at 96.6%.

With `COCCOc1nnc(C)c2ccccc12` [CBK019388], the viability at 28.5 h, 10 µM was 93.6%.

In the case of `CCN1CCC(NC(=O)CSc2nc3ccccc3n2CC(C)C)CC1` [CBK304995], the viability at 28.5 h, 10 µM is 106%.

On to `Cn1c(=O)n(-c2cccc(Cl)c2)c(=O)n1C` [CBK116498], for which the viability at 28.5 h, 10 µM was determined as 82.2%.

For the molecule `CCCCC(=O)NC(c1ccccc1OC)c1cc(Cl)c2cccnc2c1O` (stereo not drawn) [CBK110947], the viability at 28.5 h, 10 µM stood at 84.4%.

On to `c1ccc(OCc2nn3c(Cn4cnc5ccccc54)nnc3s2)cc1` [CBK268446], for which the viability at 28.5 h, 10 µM is 99.2%.

Consider `CCN(Cc1ccncc1)C(=O)NCc1cc(C)on1` [CBK155122], for which the viability at 28.5 h, 10 µM amounted to 85.2%.

As to `COc1cc(CNCCc2c[nH]c3ccccc23)cc(Cl)c1OC` [CBK269861C], the viability at 28.5 h, 10 µM is 88.5%.

In the case of `Cc1ccsc1C(=O)N1CCC(c2nn(C)c3ncccc23)CC1` [CBK285102], the viability at 28.5 h, 10 µM stood at 96.6%.

Consider `N#CCCN(CCC#N)C(=O)CN1C(=O)c2ccccc2C1=O` [CBK267100], for which the viability at 28.5 h, 10 µM is 89%.

With `COc1cc(-c2nc3ncccc3cc2NC(=O)C(C)C)cc(OC)c1OC` [CBK073661], the viability at 28.5 h, 10 µM came to 96.6%.

Regarding `CCn1c(CNC(=O)c2cn3ccc(C)cc3n2)nc2ccccc21` [CBK281394], the viability at 28.5 h, 10 µM worked out at 91.2%.

As for `N#CCCNCC1COc2ccccc2O1` (stereo not drawn) [CBK026615], the viability at 28.5 h, 10 µM worked out at 97.7%.

Turning to `CCc1nc2ccc(C(=O)NC3CCN(C)CC3)cn2c1N(C)C=O` [CBK146594], the viability at 28.5 h, 10 µM came to 108%.

For `CC(C)[C@@H](CO)n1c(=O)[nH]c2ncc(-c3cccc(/C=C/C(=O)O)c3)nc21` [CBK065043], the viability at 28.5 h, 10 µM is 88.6%.

Take `O=c1[nH]c(=O)c2cc(S(=O)(=O)NC(c3ccccc3)c3ccccc3)ccc2[nH]1` [CBK286375]: the viability at 28.5 h, 10 µM came to 89.4%.

With `O=C(c1ccc(CCN2CCCC2)nc1)N1CCN(CCc2ccccc2)CC1` [CBK200227], the viability at 28.5 h, 10 µM came out at 91.6%.

Turning to `COc1ccc(-c2cc(C(=O)Nc3ccc(CCO)cc3)cnc2-c2cccc(C)c2)cn1` [CBK037461], the viability at 28.5 h, 10 µM amounted to 91.8%.

With `CC(=O)NCCNC(=O)c1ccc(-c2ccccc2)nc1NCCc1ccccn1` [CBK076595], the viability at 28.5 h, 10 µM is 91.3%.

As to `CCn1cc(NC(=O)CC2CCN(Cc3cccc(C(F)(F)F)c3)CC2)cn1` [CBK286118], the viability at 28.5 h, 10 µM was 89.9%.

Regarding `CCNc1nc(-c2ccc(Oc3ccccc3)cc2)cn2ccnc12` [CBK066467], the viability at 28.5 h, 10 µM was found to be 94.6%.

Consider `O=C(Nc1nnc(-c2ccccn2)o1)c1cc(Cl)ccc1Cl` [CBK287429], for which the viability at 28.5 h, 10 µM was 96.9%.

On to `COc1ccc(CC(=O)N2CCC(C3OCc4cc(-c5ccc(C(=O)N(C)C)cc5)ccc4O3)CC2)cc1` (stereo not drawn) [CBK149759], for which the viability at 28.5 h, 10 µM worked out at 88.2%.

Turning to `Cc1cc(COc2nc3ccccc3nc2NC(C)C(C)C)no1` (stereo not drawn) [CBK174007], the viability at 28.5 h, 10 µM was found to be 117%.

Consider `O=C(CSc1nnnn1-c1ccccc1)Nc1nsc(-c2ccccc2)n1` [CBK267192], for which the viability at 28.5 h, 10 µM is 108%.

`CCCCCC1=NN(C(=O)OCC)C(O)(C(F)(F)F)C1` (stereo not drawn) [CBK027739]: the viability at 28.5 h, 10 µM came to 94.9%.

As to `Cc1cccc(C)c1NC(=O)CC(C(=O)O)N(C)C` (stereo not drawn) [CBK267022], the viability at 28.5 h, 10 µM was 90.9%.

As for `C=Cn1cc(CN2C3CCC2CC(O)(c2ccc(C)cc2)C3)c(C)n1` (stereo not drawn) [CBK283015], the viability at 28.5 h, 10 µM turned out to be 90.5%.

With `Cn1c(=O)c2c(ncn2CC(=O)Nc2cccc3ccccc23)n(C)c1=O` [CBK133515], the viability at 28.5 h, 10 µM is 95.8%.

On to `COc1ccc(Br)cc1C(=O)NC(=S)Nc1cc(Cl)c(O)c(Cl)c1` [CBK265979], for which the viability at 28.5 h, 10 µM amounted to 89.6%.

On to `CS(=O)(=O)c1sc(C(=O)O)c2c1C=CCC2` [CBK005513], for which the viability at 28.5 h, 10 µM turned out to be 87.3%.

As for `CN1CCN(c2cc(CNC(=O)c3cc(=O)[nH]c4ccccc34)ccn2)CC1` [CBK279658], the viability at 28.5 h, 10 µM turned out to be 101%.

Consider `COc1ccc(C(=O)Nc2nsc(-c3ccccc3)n2)cc1` [CBK113233], for which the viability at 28.5 h, 10 µM is 97.2%.

Take `O=C(c1ccco1)N1CCC(c2nnc3n2CCCCC3)CC1` [CBK284607]: the viability at 28.5 h, 10 µM came to 94.3%.

Consider `Clc1ccc(COc2cccc3cccnc23)cn1` [CBK002718], for which the viability at 28.5 h, 10 µM came out at 93.2%.

For `Cc1ccc(NC(=O)Cn2c(=O)cc(O)c3ccccc32)cc1` [CBK291116], the viability at 28.5 h, 10 µM is 95.9%.

For the molecule `CCNC(=S)N[C@H]1CC[C@@]2(Cc3ccccc3Cl)CCN(C)[C@H]2C1` [CBK003708], the viability at 28.5 h, 10 µM is 92%.

For `COc1cc(CNC(=O)c2cnoc2-c2ccc(Br)cc2)cc(OC)c1OC` [CBK154893], the viability at 28.5 h, 10 µM worked out at 110%.

Turning to `O=c1cc(O)c2ccccc2n1Cc1ccccc1F` [CBK291162], the viability at 28.5 h, 10 µM worked out at 86.3%.

For `CCC(=O)N1CCC(C#N)(c2ccccc2)CC1` [CBK091400], where the note is “bulk resorufin, single well”, the viability at 28.5 h, 10 µM was found to be 87%.

Regarding `O=C(Cc1c(F)cccc1F)Nc1ccc2[nH]ccc2c1` [CBK144712], the viability at 28.5 h, 10 µM was 120%.

As to `Cc1ccc(-c2cncc(NCc3cccs3)n2)cc1C` [CBK065967], the viability at 28.5 h, 10 µM stood at 106%.

With `CCc1ccc(OCC(=O)Nc2cccnc2)cc1` [CBK264658], the viability at 28.5 h, 10 µM came to 96.6%.

Consider `COC(=O)COc1ccc(C2Nc3c(Cl)ccc(C(=O)O)c3C3C=CCC32)cc1` (stereo not drawn) [CBK268961], for which the viability at 28.5 h, 10 µM was 99.9%.

In the case of `CC(=O)N1CCc2c([nH]c3ccccc23)C12CCN(CCc1ccccc1)CC2` [CBK039757], the viability at 28.5 h, 10 µM was 78.8%.

Take `CNc1nc(NC(C#N)c2ccccc2)ncc1N` (stereo not drawn) [CBK174783]: the viability at 28.5 h, 10 µM was 107%.

As for `CCCCOc1ccc(-c2nc(SCC(=O)O)c3c4c(sc3n2)COC(C)(C)C4)cc1` [CBK267716], the viability at 28.5 h, 10 µM turned out to be 99.1%.

As to `O=C1CC(c2cc(Br)ccc2F)c2scc(-c3ccccc3F)c2N1` (stereo not drawn) [CBK294440], the viability at 28.5 h, 10 µM turned out to be 86.4%.

In the case of `Cc1ccc(S(=O)(=O)N2CCN(CCC(=O)O)CC2)cc1C` [CBK269416], the viability at 28.5 h, 10 µM stood at 93.3%.

For `Cc1cccc(CC(=O)N2CCC(Cc3ccccc3-c3ccccc3C)(C(N)=O)CC2)c1` [CBK285728], the viability at 28.5 h, 10 µM is 93.4%.

`CC1CCC(N(CCCN)Cc2ccco2)CC1C` (stereo not drawn) [CBK268947]: the viability at 28.5 h, 10 µM worked out at 95.6%.

Take `Cn1cc(CCC(=O)N2CCc3[nH]c4ccc(Cl)cc4c3C2)cn1` [CBK304636]: the viability at 28.5 h, 10 µM worked out at 82%.

`N=c1sc(Cc2cc(Cl)ccc2Cl)cn1CC(=O)c1ccccc1` [CBK263584B]: the viability at 28.5 h, 10 µM amounted to 89.6%.

For `COc1ccc(C(=O)Nc2cccnc2N2CCNCC2)cc1` [CBK029421T], the viability at 28.5 h, 10 µM was 102%.

As to `Cc1ccccc1-n1c(C)cc(C(=O)CSc2nncn2C)c1C` [CBK298330], the viability at 28.5 h, 10 µM is 91.9%.

On to `CN(C)[C@H]1CCCC[C@@H]1n1c(-c2ccc(Cl)c(Cl)c2)n[nH]c1=O` [CBK010566], for which the viability at 28.5 h, 10 µM is 114%.

As for `CC(=O)Nc1cccc(CN(CCCO)c2ccccc2)c1` [CBK304833], the viability at 28.5 h, 10 µM came out at 97.1%.

`CC(C)(C)NC(=O)C[C@@H]1CCNC[C@@H]1Cc1cc(-c2ccccc2)on1` [CBK289145]: the viability at 28.5 h, 10 µM stood at 86%.

On to `Cc1cc(NS(=O)(=O)c2ccccc2Br)n(C)n1` [CBK067376], for which the viability at 28.5 h, 10 µM was found to be 102%.

On to `CC(C)Nc1cc(Sc2ccc(F)cc2)ncn1` [CBK089498], for which the viability at 28.5 h, 10 µM is 94.2%.

For the molecule `Brc1cnn(-c2ccccc2)c1` [CBK027172], the viability at 28.5 h, 10 µM was 87.6%.

Regarding `CCCc1n[nH]c(O)c1Cc1ccc(OCCCN(C)C)cc1` [CBK116249A], the viability at 28.5 h, 10 µM is 93.1%.

Regarding `COc1cc(Br)cc(CN2CCN(Cc3ccccc3)CC2)c1O` [CBK261880], the viability at 28.5 h, 10 µM (bulk resorufin, single well) was determined as 108%.

With `COc1ccccc1-c1cc2nc(C)cc(N3CCOCC3)n2n1` [CBK304532], the viability at 28.5 h, 10 µM amounted to 88.7%.

With `Cc1cccc(CN(CCN)C(=O)Nc2ccc(C(C)(C)C)cc2)n1` [CBK046230C], the viability at 28.5 h, 10 µM is 96.4%.

With `COCc1cccc(-c2ncc(OC)nc2NC(=O)c2c(C)noc2C)c1` [CBK145237], the viability at 28.5 h, 10 µM was 95.6%.

As to `CCc1nccn1CC(=O)N(C)C1CCCN(Cc2ccccc2F)C1` (stereo not drawn) [CBK306928], the viability at 28.5 h, 10 µM came to 102%.

For `CSCCC(=O)N1CCC2(CCN(C(=O)Cc3c[nH]c4ccccc34)C2)C1` (stereo not drawn) [CBK131442], the viability at 28.5 h, 10 µM was determined as 95.3%.

Turning to `Cc1ccc(C(=O)O)cc1S(=O)(=O)NCCCO` [CBK267171], the viability at 28.5 h, 10 µM was determined as 96.9%.

Take `CC(=O)c1cc2c(cc1NC(=O)CSc1ccccn1)OCO2` [CBK266225]: the viability at 28.5 h, 10 µM stood at 94.2%.

Consider `OC(COCc1ccc2c(c1)OCO2)CN1CCN(c2ccccn2)CC1` (stereo not drawn) [CBK278246C], for which the viability at 28.5 h, 10 µM was 105%.

As to `CCC(C)(C)C1CCc2c(sc(NC(=O)CN3CCOCC3)c2C#N)C1` (stereo not drawn) [CBK270048], the viability at 28.5 h, 10 µM is 89.4%.

Turning to `O=S(=O)(c1ccc(C(F)(F)F)cc1Cl)N1CCN(Cc2cccc3cccnc23)CC1` [CBK063075], the viability at 28.5 h, 10 µM is 110%.

As to `O=C(CNS(=O)(=O)Cc1ccccc1[N+](=O)[O-])Nc1ccc(F)cc1` [CBK042228], the viability at 28.5 h, 10 µM came out at 90%.

With `Cc1cc(N2CCN(c3ccc(O)cc3)CC2)n2nc(-c3nccn3C)cc2n1` [CBK286188], the viability at 28.5 h, 10 µM stood at 91.2%.

`CC(=O)N1CCC(N2CC[C@H](c3nnc(-c4ccco4)o3)C2)CC1` [CBK289395]: the viability at 28.5 h, 10 µM amounted to 86.9%.

The values above are taken from paper PMC12040169 (PLOS Biology, 2025).
